Reference: publication PMC5104457, “ATP-Competitive MLKL Binders Have No Functional Impact on Necroptosis” (PLoS ONE, 2016)
“Also recorded” adds a separate entry of the source.

Key:
kinase domain of RIPK1 = biological target: T1, kinase domain of RIPK1 (Homo sapiens, UniProt Q13546); assay: Differential scanning fluorimetry (thermal shift), RIPK1 kinase domain; format: binding; conditions: 10 μM compound, 1 μM protein, average of triplicates
T1 construct: The kinase domain of RIPK1; made in house
T1 sequence (Q13546 17-289 limits assumed): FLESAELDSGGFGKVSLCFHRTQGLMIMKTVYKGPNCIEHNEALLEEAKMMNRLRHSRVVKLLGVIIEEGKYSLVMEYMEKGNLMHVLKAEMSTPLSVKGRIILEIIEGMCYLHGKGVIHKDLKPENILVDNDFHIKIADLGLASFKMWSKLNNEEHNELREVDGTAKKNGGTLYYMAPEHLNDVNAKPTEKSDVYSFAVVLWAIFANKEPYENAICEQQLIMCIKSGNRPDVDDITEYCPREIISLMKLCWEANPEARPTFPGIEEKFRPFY
Procedure: (§1) To measure the thermal stabilization of the proteins upon compound binding we employed differential scanning fluorimetry (DSF). The kinase domain of RIPK1 and the N-terminal domain HSP90α were expressed and purified as previously described. The pseudokinase MLKL-1, RIPK1 and Hsp90 were melted at 1μM final concentrations in 25mM HEPES pH 8.0, 250mM NaCl and 2.5mM DTT. Compounds were added to a final concentration of 10 μ M with a final DMSO concentration of 5%. The complexes were incubated on ice for 30 minutes. Protein Thermal Shift dye (Life Technologies) was added to 1X. The fluorescence intensities were measured using a Quantstudio real-time PCR system (Life Technologies) with excitation at 470 nm and emission at 586 nm. The samples, measured in triplicate, were heated from 25 to 85°C with a heating rate of […].

pseudokinase MLKL-1 = biological target: T2, pseudokinase MLKL-1 (Homo sapiens, UniProt Q8NB16); assay: Differential scanning fluorimetry (thermal shift), MLKL pseudokinase domain; format: binding; conditions: 10 μM compound, 1 μM protein, average of triplicates; read-out: MLKL Pseudo-kinase thermal shift at 10 μM
T2 construct: sub-cloning residues 191 to 471 of the pseudokinase domain of human MLKL cDNA; His6 (thrombin cleavable) (N); made in house; host or cells: Escherichia coli BL21 (DE3)
T2 sequence (Q8NB16 191-471): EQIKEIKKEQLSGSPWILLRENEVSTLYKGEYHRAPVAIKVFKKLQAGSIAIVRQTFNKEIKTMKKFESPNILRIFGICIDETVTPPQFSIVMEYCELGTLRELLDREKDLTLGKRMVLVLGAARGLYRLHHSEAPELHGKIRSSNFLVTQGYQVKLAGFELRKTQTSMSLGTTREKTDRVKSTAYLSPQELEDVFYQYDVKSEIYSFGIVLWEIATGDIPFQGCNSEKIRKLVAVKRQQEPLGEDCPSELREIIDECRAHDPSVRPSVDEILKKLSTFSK
Text: MLKL-1 was constructed by sub-cloning residues 191 to 471 of the pseudokinase domain of human MLKL cDNA into a pET15b vector with a thrombin cleavable N-terminal six histidine fusion tag (His-MLKL-1). MLKL-2 had the same protein boundaries and fusion tag system as MLKL-1 but the dual mutations E366A and K367A were introduced using site directed mutagenesis and was expressed in the same vector (His-MLKL-2).
as §1

FADD (-/-) Jurkat cells [1] = assay: Necroptosis assay: rescue from TNF-α induced cell death; format: cell-based; conditions: FADD deficient Jurkat cells; for IC50: TNF-α 15 ng/ml overnight, average of duplicates, read-out: Necroptosis cell IC50
Procedure: Necroptosis assays were performed at Charles River Laboratories (United Kingdom) and at Biogen. […] On the day of the experiment, cells were counted using Nexcelom Bioscience Cell Meter Vision and pelleted by centrifugation. Cell pellets were resuspended in fresh medium at 500,000 cells per mL and transferred to assay-ready compound plates prepared in 384-well white TC plates (Greiner #781080) at 20μl cells per well. Cells and compound were incubated at room temperature for 30 minutes followed by +/- stimulation with 15ng/ml TNF-α (Cell signalling Technologies #8902LF) overnight at 37°C. In the morning, plates were equilibrated to room temperature for 30 minutes and 25μl of CellTiter-Glow (CellTiter-Glo 2.0 Assay, Promega # G9243) diluted 1:4 in PBS was added to each well and allowed to incubate for 10 minutes at room temperature. Luminescence was read on an Envision plate reader (Perkin Elmer).
TNF-α added to these cells induces necroptosis or cell death. The term “Rescue” refers to the ability of a compound to prevent loss of cell viability in the presence of TNF. Definitions of the presence or absence of compound or TNF stimulation in the wells that were used to calculate degree of rescue or viability is defined in Table 1.
100% percent rescue is defined as the value of the “no TNF” wells minus the value of wells treated with “TNF”.
Percent Rescue is then the ratio of the intensity value of the experimental “well” minus the value of “TNF” treated wells divided by the overall difference between the value of “no TNF” treated wells and the value of “TNF” treated wells.
%rescue=((well - TNF)/(no TNF - TNF))x100

[2] = test system: RIPK3 phosphorylation of MLKL in 293T cells; assay: MLKL phosphorylation assay (MSD), RIPK3-dependent phospho Ser358; format: cell-based, human; conditions: 293T cells with GFP-MLKL and RIPK3-mCherry, 30 min compound, normalized to DMSO
Procedure: The cDNA clones of human MLKL (RC213152) and human RIPK3 (RC209549) were purchased from Origene. To generate GFP-MLKL and RIPK3-mCherry, coding sequences of the corresponding cDNA sequences were PCR amplified and cloned into Biogen’s mammalian expression vector.
293T cells grown in 10 cm plates were transfected with GFP-MLKL alone or both GFP-MLKL and RIPK3-mCherry plasmids. After 24 hours, cells were harvested and replated into poly D lysine coated 96W plate with 20,000 cells/ml. Four hours later, cells were treated with MLKL compounds for 30 min and incubated at 37°C. Thirty minutes later, the media was removed and cells were lysed in 150μl of Cell lysis buffer (Cell Signaling, MA) containing both protease and phosphatase inhibitors. The lysates were transferred to 96 well MSD plates (Meso Scale Discovery, MD) that were precoated with anti-mouse MLKL antibody H00197259-M02, 3B2, Novus Biologicals, CO), and incubated overnight at 4°C. After washing the plates three times with 1x MSD wash buffer (50mM TRIS-HCl, 150mM NaCl, 0.02% Tween 20, pH7.5), 100 μl of 0.5μg/ml of rabbit-anti-MLKL phospho Ser358 (Abcam AB187091) was added to each well. The plates were incubated for 2 hours at room temperature. After three washes with MSD wash buffer, 100 μ l of 0.5ug/ml of SULFO-tag labeled anti-rabbit IgG was added to each well and incubated for 1 hour at room temperature. After three washes, 1x Read bufferT (Meso Scale Discovery, MD) was added and the electrochemiluminescence (ECL) was measured with a MSD Sector Imager 600.

full length MLKL = biological target: T3, full length MLKL (Homo sapiens, UniProt Q8NB16); assay: KINOMEscan ATP-competitive probe displacement (competition binding) assay, MLKL; conditions: for Kd: average of duplicates
T3 construct: purchased DiscoverX (KINOMEscan service); host or cells: HEK-293
T3 sequence (Q8NB16 1-471): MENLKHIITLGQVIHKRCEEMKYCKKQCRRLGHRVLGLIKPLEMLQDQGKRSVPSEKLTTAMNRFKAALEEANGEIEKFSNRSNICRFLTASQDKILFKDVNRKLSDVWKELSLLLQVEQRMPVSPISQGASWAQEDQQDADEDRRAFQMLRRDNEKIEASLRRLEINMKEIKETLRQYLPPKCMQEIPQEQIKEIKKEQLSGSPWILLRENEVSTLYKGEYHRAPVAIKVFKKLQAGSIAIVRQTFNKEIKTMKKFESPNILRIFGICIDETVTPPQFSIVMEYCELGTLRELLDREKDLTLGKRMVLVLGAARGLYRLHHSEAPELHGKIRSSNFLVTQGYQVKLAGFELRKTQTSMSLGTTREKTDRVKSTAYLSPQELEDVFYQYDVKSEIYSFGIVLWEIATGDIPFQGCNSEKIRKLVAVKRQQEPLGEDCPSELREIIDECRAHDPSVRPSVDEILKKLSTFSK
Procedure: Compound binding constants (KDs) were determined at DiscoverX using their KINOMEscan assay platform. […] Briefly, full length MLKL was expressed in HEK-293 cells as a fusion with an NFκB DNA binding domain and subsequently tagged with a qPCR detection amplicon via interaction with NFκB. […] Twenty microliters of binding reactions were carried out in 384-well polypropylene plates for 1 hour at room temperature. Beads were subsequently washed and resuspended in elution buffer for 30 minutes at room temperature with shaking. The concentration of MLKL in the eluates was measured by qPCR and compound binding constants were calculated using a standard dose-response curve.
(§2) A similar approach was used to measure binding affinities for RIPK1 and RIPK3 kinase domains.

RIPK1 kinase domain = biological target: T4, RIPK1 kinase domain (Homo sapiens, UniProt Q13546); assay: ATP-competitive probe displacement assay, RIPK1; format: binding; conditions: for Kd: average of duplicates; for weaker potency to RIPK1 relative to MLKL: RIPK1 KD versus MLKL KD
T4 construct: purchased DiscoverX
T4 sequence (Q13546 17-289 limits assumed): T1 sequence (Q13546 17-289 limits assumed)
Procedure: (§3) Compound binding constants (KDs) were determined at DiscoverX using their KINOMEscan assay platform. This competition binding assay was previously described in Karaman et al. (2008)[18]. Briefly, full length MLKL was expressed in HEK-293 cells as a fusion with an NFκB DNA binding domain and subsequently tagged with a qPCR detection amplicon via interaction with NFκB. […] Twenty microliters of binding reactions were carried out in 384-well polypropylene plates for 1 hour at room temperature. Beads were subsequently washed and resuspended in elution buffer for 30 minutes at room temperature with shaking. The concentration of MLKL in the eluates was measured by qPCR and compound binding constants were calculated using a standard dose-response curve.
as §2

RIPK3 kinase domain = biological target: T5, RIPK3 kinase domain (Homo sapiens, UniProt Q9Y572); assay: ATP-competitive probe displacement assay, RIPK3; format: binding
T5 construct: purchased DiscoverX
Procedure: as §3, §2

FADD (-/-) Jurkat cells [3] = assay: Viability experiment in the absence of TNF; format: cell-based; conditions: FADD deficient Jurkat cells, no TNF, Fig 3F
Procedure: Necroptosis assays were performed at Charles River Laboratories (United Kingdom) and at Biogen. […] On the day of the experiment, cells were counted using Nexcelom Bioscience Cell Meter Vision and pelleted by centrifugation. Cell pellets were resuspended in fresh medium at 500,000 cells per mL and transferred to assay-ready compound plates prepared in 384-well white TC plates (Greiner #781080) at 20μl cells per well. Cells and compound were incubated at room temperature for 30 minutes followed by +/- stimulation with 15ng/ml TNF-α (Cell signalling Technologies #8902LF) overnight at 37°C. In the morning, plates were equilibrated to room temperature for 30 minutes and 25μl of CellTiter-Glow (CellTiter-Glo 2.0 Assay, Promega # G9243) diluted 1:4 in PBS was added to each well and allowed to incubate for 10 minutes at room temperature. Luminescence was read on an Envision plate reader (Perkin Elmer). Percent viability values are calculated from separate dose response experiments identical to the percent rescue experiment except that no TNF is added to the cells. This assay is intended to identify compounds that not only don’t rescue, but are toxic themselves. 100% Viability is defined as the intensity value of the “no TNF” wells, cell treated with neither compound nor TNF. […]

T5 sequence (Q9Y572 21-287 limits assumed): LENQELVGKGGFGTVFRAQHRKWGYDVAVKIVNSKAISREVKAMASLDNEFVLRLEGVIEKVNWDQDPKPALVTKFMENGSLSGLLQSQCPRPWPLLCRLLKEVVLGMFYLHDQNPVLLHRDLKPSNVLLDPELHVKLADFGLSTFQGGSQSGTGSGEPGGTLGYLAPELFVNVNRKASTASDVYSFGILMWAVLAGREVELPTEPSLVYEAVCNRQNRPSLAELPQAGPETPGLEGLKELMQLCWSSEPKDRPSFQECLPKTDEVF

Row | SMILES | ΔTm at 10 µM (kinase domain of RIPK1) [°C] | ΔTm at 10 µM (pseudokinase MLKL-1) [°C] | Kd (RIPK1 kinase domain) [nM] | Kd (full length MLKL) [nM] | weaker potency to RIPK1 relative to MLKL (RIPK1 kinase domain) | IC50 (FADD (-/-) Jurkat cells [1]; Homo sapiens) [nM] | effect on RIPK3-dependent phosphorylation of MLKL (phospho Ser358, in words) [2] | also measured
1 | C[C@@H](Oc1cc(-c2cnn(C3CCNCC3)c2)cnc1N)c1c(Cl)ccc(F)c1Cl [Crizontinib, reference compound] | 0.75 | 5.63 | – | – | – | > 40000 | does not impact its phosphorylation | rescue of cells from necroptosis (in words) (FADD (-/-) Jurkat cells [1]; dose-response, Fig 3): does not rescue cells from necroptosis
2 | CC(C)S(=O)(=O)c1ccc2nccc(Nc3ccc4scnc4c3)c2c1 [GSK872] | – | – | – | – | – | – | completely inhibited; also recorded: inhibits phosphorylation of MLKL | –
3 | CN1C(=O)C(Cc2c[nH]c3ccccc23)NC1=S (stereo not shown) [Nec1s, Necrostatin, reference compound] | – | – | – | – | – | – | – | EC50 (FADD (-/-) Jurkat cells [1]; Homo sapiens, TNF stimulation): 500 nM; effect on cell viability in the absence of TNF stimulation (in words) (FADD (-/-) Jurkat cells [3]): does not effect cell viability

Continued, in another order:

Row | ΔTm at 10 µM (kinase domain of RIPK1) [°C] | ΔTm at 10 µM (pseudokinase MLKL-1) [°C] | Kd (RIPK1 kinase domain) [nM] | Kd (full length MLKL) [nM] | weaker potency to RIPK1 relative to MLKL (RIPK1 kinase domain) | SMILES | IC50 (FADD (-/-) Jurkat cells [1]; Homo sapiens) [nM] | effect on RIPK3-dependent phosphorylation of MLKL (phospho Ser358, in words) [2] | also measured
4 | 0.15 | 0.67 | > 30000 | – | – | COc1nccnc1NS(=O)(=O)c1ccc(NC(=O)/C=C/c2ccc([N+](=O)[O-])s2)cc1 [NSA, Necrosulfonamide, reference compound] | 200 | – | displacement of the ATP probe from MLKL (in words) (full length MLKL; data not shown): not to displace the ATP probe; displacement of the ATP probe from / binding to RIPK1 (in words) (RIPK1 kinase domain): not to displace the ATP probe; displacement of the ATP probe from / binding to RIPK3 (in words) (RIPK3 kinase domain): not to displace the ATP probe; Kd (RIPK3 kinase domain; average of duplicates): > 30000 nM
5 | 0 | 2.93 | > 10000 | 780 | at least 10 fold | CC(=O)Nc1ccc(N(C)c2ccnc(Nc3cccc(S(N)(=O)=O)c3)n2)cc1 [cpd 2] | > 40000 | – | –
6 | 0.31 | 1.57 | > 10000 | 880 | at least 10 fold | CN(c1ccc(N)cc1)c1ccnc(Nc2cccc(S(N)(=O)=O)c2)n1 [cpd 3] | > 40000 | – | –
